Assay results as given in ChEMBL document CHEMBL1136688, “Synthesis and SAR of aminoalkoxy-biaryl-4-carboxamides: novel and selective histamine H3 receptor antagonists” (Bioorg Med Chem Lett, 2003).

Assays:
Histamine H3 receptor [1] = biological target: Histamine H3 receptor (Homo sapiens, UniProt Q9Y5N1); test: Binding affinity for human recombinant H3 receptor
Histamine H3 receptor [2] = biological target: Histamine H3 receptor (Rattus norvegicus, UniProt Q9QYN8); test: Binding affinity towards rat cortical H3 receptor
Histamine H3 receptor (Rattus norvegicus, UniProt Q9QYN8), sequence (Q9QYN8 whole entry): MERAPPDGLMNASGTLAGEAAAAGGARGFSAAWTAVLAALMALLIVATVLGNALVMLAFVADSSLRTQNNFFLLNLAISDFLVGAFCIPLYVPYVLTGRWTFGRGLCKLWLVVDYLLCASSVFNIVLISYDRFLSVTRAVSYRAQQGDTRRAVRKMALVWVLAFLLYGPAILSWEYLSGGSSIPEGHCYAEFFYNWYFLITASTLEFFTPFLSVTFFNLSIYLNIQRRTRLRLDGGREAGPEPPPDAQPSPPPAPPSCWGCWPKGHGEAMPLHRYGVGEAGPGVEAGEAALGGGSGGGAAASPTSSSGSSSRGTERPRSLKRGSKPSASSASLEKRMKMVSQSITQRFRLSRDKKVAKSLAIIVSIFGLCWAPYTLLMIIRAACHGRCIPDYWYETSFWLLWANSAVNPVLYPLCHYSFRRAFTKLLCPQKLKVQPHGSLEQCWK

Histamine H1 receptor = Histamine H1 receptor (Homo sapiens, UniProt P35367); test: Binding affinity towards human histamine (H1) receptor
Histamine H1 receptor, sequence (P35367 whole entry): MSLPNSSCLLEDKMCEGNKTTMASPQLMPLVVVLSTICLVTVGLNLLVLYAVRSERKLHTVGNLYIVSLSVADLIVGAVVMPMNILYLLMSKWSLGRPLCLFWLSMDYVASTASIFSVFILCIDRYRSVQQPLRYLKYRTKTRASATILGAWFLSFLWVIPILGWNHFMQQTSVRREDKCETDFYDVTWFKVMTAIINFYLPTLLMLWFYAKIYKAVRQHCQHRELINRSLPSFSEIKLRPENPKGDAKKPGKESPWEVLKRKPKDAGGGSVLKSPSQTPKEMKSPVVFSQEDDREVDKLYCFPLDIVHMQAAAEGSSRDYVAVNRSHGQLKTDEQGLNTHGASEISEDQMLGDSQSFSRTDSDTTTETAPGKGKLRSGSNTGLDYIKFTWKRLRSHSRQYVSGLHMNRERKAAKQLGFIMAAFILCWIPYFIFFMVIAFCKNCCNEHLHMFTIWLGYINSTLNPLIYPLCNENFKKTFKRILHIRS

Histamine H2 receptor = Histamine H2 receptor (Homo sapiens, UniProt P25021); test: Binding affinity towards human histamine (H2) receptor
Histamine H2 receptor, sequence (P25021 whole entry): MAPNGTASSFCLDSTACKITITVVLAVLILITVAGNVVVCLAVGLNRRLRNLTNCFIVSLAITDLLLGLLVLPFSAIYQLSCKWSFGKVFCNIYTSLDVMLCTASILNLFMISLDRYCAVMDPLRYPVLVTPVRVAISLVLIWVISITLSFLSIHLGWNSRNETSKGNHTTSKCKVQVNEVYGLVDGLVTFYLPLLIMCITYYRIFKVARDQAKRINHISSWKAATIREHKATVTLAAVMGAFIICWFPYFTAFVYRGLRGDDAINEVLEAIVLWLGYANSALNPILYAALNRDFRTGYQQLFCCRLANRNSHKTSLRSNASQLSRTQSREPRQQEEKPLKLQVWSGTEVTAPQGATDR

Histamine H3 receptor (Homo sapiens, UniProt Q9Y5N1), sequence (Q9Y5N1 whole entry): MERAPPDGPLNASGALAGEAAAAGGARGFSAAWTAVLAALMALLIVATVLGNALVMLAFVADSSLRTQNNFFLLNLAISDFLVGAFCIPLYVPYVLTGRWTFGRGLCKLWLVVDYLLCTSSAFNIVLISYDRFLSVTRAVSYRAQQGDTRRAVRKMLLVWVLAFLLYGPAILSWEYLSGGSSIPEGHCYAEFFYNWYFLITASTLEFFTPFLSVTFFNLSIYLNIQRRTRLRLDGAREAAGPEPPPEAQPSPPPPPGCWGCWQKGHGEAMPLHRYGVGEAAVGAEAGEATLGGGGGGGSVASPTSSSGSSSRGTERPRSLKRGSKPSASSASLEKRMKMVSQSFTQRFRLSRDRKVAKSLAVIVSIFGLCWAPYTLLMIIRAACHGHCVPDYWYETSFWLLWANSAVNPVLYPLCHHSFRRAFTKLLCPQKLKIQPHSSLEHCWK

## C[C@H]1CC[C@H](C)N1CCCOc1ccc(-c2ccc(C(=O)N3[C@@H](C)CC[C@@H]3C)cc2)cc1
Histamine H3 receptor [1]
  Ki: 0.977 nM

## O=C(c1ccc(-c2ccc(OCCCN3CCOCC3)cc2)cc1)N1CCOCC1
Histamine H3 receptor [1]
  Ki: 18.2 nM
Histamine H3 receptor [2]
  Ki: 52.5 nM

## CC1CCN(CCCOc2ccc(-c3ccc(C(=O)N4CCCC4C)cc3)cc2)CC1 (configuration not stated)
Histamine H3 receptor [1]
  Ki: 3.72 nM
Histamine H3 receptor [2]
  Ki: 2.82 nM

## C[C@H]1CC[C@H](C)N1CCCOc1ccc(-c2ccc(C(=O)N3CCCC3)cc2)cc1
Histamine H3 receptor [1]
  Ki: 0.692 nM
Histamine H3 receptor [2]
  Ki: 5.13 nM

## CCN(CC)C(=O)c1ccc(-c2ccc(OCCCN3CC[C@H](O)C3)cc2)cc1
Histamine H3 receptor [1]
  Ki: 8.13 nM
Histamine H3 receptor [2]
  Ki: 42.7 nM

## CC(C)N(C)C(=O)c1ccc(-c2ccc(OCCCN3CC[C@H](O)C3)cc2)cc1
Histamine H3 receptor [1]
  Ki: 8.13 nM
Histamine H3 receptor [2]
  Ki: 28.8 nM

## CC(C)NCCCOc1ccc(-c2ccc(C(=O)N3CCCC3C)cc2)cc1 (configuration not stated)
Histamine H3 receptor [1]
  Ki: 9.77 nM
Histamine H3 receptor [2]
  Ki: 42.7 nM

## CCN(CC)C(=O)c1ccc(-c2ccc(OCCCN3CC[C@H](N(C)C)C3)cc2)cc1
Histamine H3 receptor [1]
  Ki: 6.92 nM
Histamine H3 receptor [2]
  Ki: 28.2 nM

## CC1CCCN1C(=O)c1ccc(-c2ccc(OCCCN3CC[C@H](O)C3)cc2)cc1 (some centres not stated)
Histamine H3 receptor [1]
  Ki: 8.32 nM
Histamine H3 receptor [2]
  Ki: 25.7 nM

## CN(C)[C@@H]1CCN(CCCOc2ccc(-c3ccc(C(=O)N4CCOCC4)cc3)cc2)C1
Histamine H3 receptor [1]
  Ki: 5.5 nM
Histamine H3 receptor [2]
  Ki: 27.5 nM

## CC1CCN(C(=O)c2ccc(-c3ccc(OCCCN4CCOCC4)cc3)cc2)CC1
Histamine H3 receptor [1]
  Ki: 23.4 nM
Histamine H3 receptor [2]
  Ki: 70.8 nM

## CC1CCN(C(=O)c2ccc(-c3ccc(OCCCNC(C)C)cc3)cc2)CC1
Histamine H3 receptor [1]
  Ki: 182 nM
Histamine H3 receptor [2]
  Ki: 479 nM

## CCN(CC)C(=O)c1ccc(-c2ccc(OCCCN3CCOCC3)cc2)cc1
Histamine H3 receptor [1]
  Ki: 16.2 nM
Histamine H3 receptor [2]
  Ki: 97.7 nM

## CCN(CC)CCCOc1ccc(-c2ccc(C(=O)N3CCCC3)cc2)cc1
Histamine H3 receptor [1]
  Ki: 3.02 nM
Histamine H3 receptor [2]
  Ki: 12.9 nM

## CC1CCN(C(=O)c2ccc(-c3ccc(OCCCN4[C@@H](C)CC[C@@H]4C)cc3)cc2)CC1
Histamine H3 receptor [1]
  Ki: 0.603 nM
Histamine H3 receptor [2]
  Ki: 2.95 nM

## CC(C)NCCCOc1ccc(-c2ccc(C(=O)N3CCOCC3)cc2)cc1
Histamine H3 receptor [1]
  Ki: 32.4 nM
Histamine H3 receptor [2]
  Ki: 129 nM

## CCN(CC)C(=O)c1ccc(-c2ccc(OCCCNC(C)C)cc2)cc1
Histamine H3 receptor [1]
  Ki: 110 nM
Histamine H3 receptor [2]
  Ki: 407 nM

## CC1CCN(CCCOc2ccc(-c3ccc(C(=O)N4CCC(C)CC4)cc3)cc2)CC1
Histamine H3 receptor [1]
  Ki: 10.7 nM
Histamine H3 receptor [2]
  Ki: 20.9 nM

## CC1CCN(CCCOc2ccc(-c3ccc(C(=O)N4CCOCC4)cc3)cc2)CC1
Histamine H3 receptor [1]
  Ki: 7.24 nM
Histamine H3 receptor [2]
  Ki: 8.71 nM

## CCN(CC)CCCOc1ccc(-c2ccc(C(=O)N3[C@@H](C)CC[C@@H]3C)cc2)cc1
Histamine H3 receptor [1]
  Ki: 5.13 nM
Histamine H3 receptor [2]
  Ki: 13.8 nM

## CCN(CC)C(=O)c1ccc(-c2ccc(OCCCN3[C@@H](C)CC[C@@H]3C)cc2)cc1
Histamine H3 receptor [1]
  Ki: 0.776 nM

## CC(C)NCCCOc1ccc(-c2ccc(C(=O)N3[C@@H](C)CC[C@@H]3C)cc2)cc1
Histamine H3 receptor [1]
  Ki: 229 nM
Histamine H3 receptor [2]
  Ki: 219 nM

## CC1CCN(C(=O)c2ccc(-c3ccc(OCCCN4CC[C@H](O)C4)cc3)cc2)CC1
Histamine H3 receptor [1]
  Ki: 6.92 nM
Histamine H3 receptor [2]
  Ki: 30.9 nM

## CCN(CC)C(=O)c1ccc(-c2ccc(OCCCN3CCC(C)CC3)cc2)cc1
Histamine H3 receptor [1]
  Ki: 4.79 nM
Histamine H3 receptor [2]
  Ki: 9.12 nM

## CC1CCN(CCCOc2ccc(-c3ccc(C(=O)N4CCCC4)cc3)cc2)CC1
Histamine H3 receptor [1]
  Ki: 3.63 nM
Histamine H3 receptor [2]
  Ki: 10.2 nM

## C[C@H]1CC[C@H](C)N1C(=O)c1ccc(-c2ccc(OCCCN3CCOCC3)cc2)cc1
Histamine H3 receptor [1]
  Ki: 37.2 nM
Histamine H3 receptor [2]
  Ki: 115 nM

## C[C@H]1CC[C@H](C)N1C(=O)c1ccc(-c2ccc(OCCCN3CC[C@H](O)C3)cc2)cc1
Histamine H3 receptor [1]
  Ki: 11.2 nM
Histamine H3 receptor [2]
  Ki: 57.5 nM

## CC(C)(C)CCC#C[C@@H]1C[C@H]1c1c[nH]cn1 [CIPRALISANT]
Histamine H3 receptor [1]
  Ki: 2.14 nM
Histamine H3 receptor [2]
  Ki: 0.195 nM

## CCN(CC)CCCOc1ccc(-c2ccc(C(=O)NC(C)C)cc2)cc1
Histamine H3 receptor [1]
  Ki: 6.17 nM
Histamine H3 receptor [2]
  Ki: 16.2 nM

## CN(C)[C@@H]1CCN(CCCOc2ccc(-c3ccc(C(=O)N4CCCC4)cc3)cc2)C1
Histamine H3 receptor [1]
  Ki: 2.88 nM
Histamine H3 receptor [2]
  Ki: 18.6 nM

## O=C(c1ccc(-c2ccc(OCCCN3CC[C@H](O)C3)cc2)cc1)N1CCOCC1
Histamine H3 receptor [1]
  Ki: 6.17 nM
Histamine H3 receptor [2]
  Ki: 32.4 nM

## CCN(CC)CCCOc1ccc(-c2ccc(C(=O)N3CCCC3C)cc2)cc1 (configuration not stated)
Histamine H3 receptor [1]
  Ki: 2.14 nM
Histamine H3 receptor [2]
  Ki: 7.24 nM

## CC(C)NC(=O)c1ccc(-c2ccc(OCCCN3CCOCC3)cc2)cc1
Histamine H3 receptor [1]
  Ki: 38.9 nM
Histamine H3 receptor [2]
  Ki: 135 nM

## CC(C)NC(=O)c1ccc(-c2ccc(OCCCN3[C@@H](C)CC[C@@H]3C)cc2)cc1
Histamine H3 receptor [1]
  Ki: 0.851 nM
Histamine H3 receptor [2]
  Ki: 2.82 nM

## O=C(c1ccc(-c2ccc(OCCCN3CC[C@H](O)C3)cc2)cc1)N1CCCC1
Histamine H3 receptor [1]
  Ki: 6.46 nM
Histamine H3 receptor [2]
  Ki: 33.1 nM

## CC1CCN(CCCOc2ccc(-c3ccc(C(=O)NC(C)C)cc3)cc2)CC1
Histamine H3 receptor [1]
  Ki: 2.09 nM
Histamine H3 receptor [2]
  Ki: 3.8 nM

## CC1CCCN1C(=O)c1ccc(-c2ccc(OCCCN3CCOCC3)cc2)cc1 (configuration not stated)
Histamine H3 receptor [1]
  Ki: 24.5 nM
Histamine H3 receptor [2]
  Ki: 112 nM

## CCN(CC)CCCOc1ccc(-c2ccc(C(=O)N3CCOCC3)cc2)cc1
Histamine H3 receptor [1]
  Ki: 2.4 nM
Histamine H3 receptor [2]
  Ki: 8.91 nM

## CC1CCCN1C(=O)c1ccc(-c2ccc(OCCCN3CC[C@H](N(C)C)C3)cc2)cc1 (some centres not stated)
Histamine H3 receptor [1]
  Ki: 6.46 nM
Histamine H3 receptor [2]
  Ki: 21.4 nM

## CC1CCCN1C(=O)c1ccc(-c2ccc(OCCCN3[C@@H](C)CC[C@@H]3C)cc2)cc1 (some centres not stated)
Histamine H3 receptor [1]
  Ki: 0.776 nM
Histamine H3 receptor [2]
  Ki: 1.02 nM

## CC1CCN(C(=O)c2ccc(-c3ccc(OCCCN4CC[C@@H](N(C)C)C4)cc3)cc2)CC1
Histamine H3 receptor [1]
  Ki: 3.89 nM
Histamine H3 receptor [2]
  Ki: 29.5 nM

## O=C(c1ccc(-c2ccc(OCCCN3CCOCC3)cc2)cc1)N1CCCC1
Histamine H3 receptor [1]
  Ki: 40.7 nM
Histamine H3 receptor [2]
  Ki: 178 nM

## C[C@H]1CC[C@H](C)N1C(=O)c1ccc(-c2ccc(OCCCN3CC[C@H](N(C)C)C3)cc2)cc1
Histamine H3 receptor [1]
  Ki: 4.37 nM
Histamine H3 receptor [2]
  Ki: 17.4 nM

## O=C(c1ccc(-c2ccc(OCCCN3CCCC3)cc2)cc1)N1CCCC1
Histamine H3 receptor [1]
  Ki: 1.12 nM
Histamine H1 receptor
  Ki: > 1910 nM
Histamine H3 receptor [2]
  Ki: 6.61 nM
Histamine H2 receptor
  Ki: > 1910 nM

## CCN(CC)CCCOc1ccc(-c2ccc(C(=O)N3CCC(C)CC3)cc2)cc1
Histamine H3 receptor [1]
  Ki: 3.47 nM
Histamine H3 receptor [2]
  Ki: 8.32 nM

## CC1CCN(CCCOc2ccc(-c3ccc(C(=O)N4[C@@H](C)CC[C@@H]4C)cc3)cc2)CC1
Histamine H3 receptor [1]
  Ki: 4.68 nM
Histamine H3 receptor [2]
  Ki: 3.63 nM
